Results: patent US7585883B2, “Substituted pyridines and their uses” (Rigel Pharmaceuticals, Inc., priority 2004, dated 2009)

How the values were obtained:
[1] = system: cultured human mast cells (CHMC); assay: CHMC low cell density ionomycin activation: tryptase assay (ionomycin-induced degranulation); format: cell-based; conditions: ionomycin 2 μM final, tryptase release, read-out: Iono (second symbol of IgE/Iono): IC50 of ionomycin-induced degranulation
Protocol: (§1) To duplicate 96-well U-bottom plates (Costar 3799) add 65 ul of compound dilutions or control samples that have been prepared in MT [137 mM NaCl, 2.7 mM KCl, 1.8 mM CaCl2, 1.0 mM MgCl2, 5.6 mM Glucose, 20 mM Hepes (pH 7.4), 0.1% Bovine Serum Albumin, (Sigma A4503)] containing 2% MeOH and 1% DMSO. Pellet CHMC cells (980 rpm, 10 min) and resuspend in pre-warmed MT. Add 65 ul of cells to each 96-well plate. Depending on the degranulation activity for each particular CHMC donor, load 1000-1500 cells/well. Mix four times followed by a 1 hr incubation at 37° C. During the 1 hr incubation, prepare 6× anti-IgE solution [rabbit anti-human IgE (1 mg/ml, Bethyl Laboratories A80-109A) diluted 1:167 in MT buffer]. Stimulate cells by adding 25 ul of 6× anti-IgE solution to the appropriate plates. Add 25 ul MT to un-stimulated control wells. Mix twice following addition of the anti-IgE. Incubate at 37° C. for 30 minutes. During the 30 minute incubation, dilute the 20 mM tryptase substrate stock solution [(Z-Ala-Lys-Arg-AMC 2TFA; Enzyme Systems Products, #AMC-246)] 1:2000 in tryptase assay buffer [0.1 M Hepes (pH 7.5), 10% w/v Glycerol, 10 uM Heparin (Sigma H-4898) 0.01% NaN3]. Spin plates at 1000 rpm for 10 min to pellet cells. Transfer 25 ul of supernatant to a 96-well black bottom plate and add 100 ul of freshly diluted tryptase substrate solution to each well. Incubate plates at room temperature for 30 min. Read the optical density of the plates at 355 nm/460 nm on a spectrophotometric plate reader.
To confirm that many of the pyridine compounds of the invention exert their inhibitory activity by blocking or inhibiting the early IgE receptor signal transduction cascade, several of the compounds were tested in cellular assays for ionomycin-induced degranulation, as described below.
Assays for ionomycin-induced mast cell degranulation were carried out as described for the CHMC Low Density IgE Activation assays, supra, with the exception that during the 1 hour incubation, 6× ionomycin solution [5 mM ionomycin (Sigma I-0634) in MeOH (stock) diluted 1:416.7 in MT buffer (2 μM final)] was prepared and cells were stimulated by adding 25 μl of the 6× ionomycin solution to the appropriate plates.

[2] = system: cultured human mast cells (CHMC); assay: CHMC low cell density IgE activation: tryptase assay (IgE-induced degranulation); format: cell-based; conditions: anti-IgE stimulation, tryptase release, read-out: IgE (first symbol of IgE/Iono): IC50 of IgE-induced degranulation
Protocol: Inhibition of degranulation was measured at both low and high cell density by quantifying the release of the granule specific factors tryptase, histamine and hexosaminidase. Inhibition of release and/or synthesis of lipid mediators was assessed by measuring the release of leukotriene LTC4 and inhibition of release and/or synthesis of cytokines was monitored by quantifying TNF-α, IL-6 and IL-13. Tryptase and hexosaminidase were quantified using fluorogenic substrates as described in their respective examples. Histamine, TNFα, IL-6, IL-13 and LTC4 were quantified using the following commercial ELISA kits: histamine (Immunotech #2015, Beckman Coulter), TNFα (Biosource #KHC3011), IL-6 (Biosource #KMC0061), IL-13 (Biosource #KHC0132) and LTC4 (Cayman Chemical #520211). The protocols of the various assays are provided below.
7.2.7 CHMC Low Cell Density IgE Activation: Tryptase and LTC4 Assays
as §1

Compound	IC50 [1] [µM]	IC50 [2] [µM]
O=C(OCCSc1ccc([N+](=O)[O-])cn1)c1cccc(Cl)c1 [Compound 5, 2-[(5-Nitro-2-pyridinyl)thio]ethyl-3-chlorobenzoate]	> 10	> 10
O=C(OCCS(=O)(=O)c1ccc([N+](=O)[O-])cn1)c1cccc(Cl)c1 [Compound 6, 2-[(5-Nitro-2-pyridinyl)sulfonyl]ethyl 3-chlorobenzoate]	< 10	< 10
O=C(OCCS(=O)(=O)c1ccc([N+](=O)[O-])cn1)c1ccc(Cl)cc1 [Compound 9, 2-[(5-Nitro-2-pyridinyl)sulfonyl]ethyl 4-chlorobenzoate]	< 10	< 10
O=C(OCCS(=O)(=O)c1ccc([N+](=O)[O-])cn1)c1cccc(C(F)(F)F)c1 [Compound 11, 2-[(5-Nitro-2-pyridinyl)sulfonyl]ethyl 3-trifluoromethylbenzoate]	< 10	< 10
O=C(OCCS(=O)(=O)c1ccc([N+](=O)[O-])cn1)c1ccccc1C(F)(F)F [Compound 12, 2-[(5-Nitro-2-pyridinyl)sulfonyl]ethyl-2-trifluoromethylbenzoate]	< 10	< 10
O=C(OCCS(=O)(=O)c1ccc([N+](=O)[O-])cn1)c1ccccc1 [Compound 13, 2[(5-Nitro-2-pyridinyl)sulfonyl]ethyl benzoate]	< 10	< 10
O=C(OCCS(=O)(=O)c1ccc([N+](=O)[O-])cn1)c1ccccc1F [Compound 14, 2-[(5-Nitro-2-pyridinyl)sulfonyl]ethyl 2-fluorobenzoate]	< 10	< 10
O=C(OCCS(=O)(=O)c1ccc([N+](=O)[O-])cn1)c1cccc(F)c1 [Compound 15, 2-[(5-Nitro-2-pyridinyl)sulfonyl]ethyl 3-fluorobenzoate]	< 10	< 10
O=C(OCCS(=O)(=O)c1ccc([N+](=O)[O-])cn1)c1ccc(F)cc1 [Compound 16, 2-[(5-Nitro-2-pyridinyl)sulfonyl]ethyl 4-fluorobenzoate]	< 10	< 10
CC(=O)OCCS(=O)(=O)c1ccc([N+](=O)[O-])cn1 [Compound 17, 2-[(5-Nitro-2-pyridinyl)sulfonyl]ethyl acetate]	< 10	< 10
CCC(=O)OCCS(=O)(=O)c1ccc([N+](=O)[O-])cn1 [Compound 18, 2-[(5-Nitro-2-pyridinyl)sulfonyl]ethyl propionate]	< 10	< 10
O=C(OCCS(=O)(=O)c1ccc([N+](=O)[O-])cn1)c1cccc(OC(F)(F)F)c1 [Compound 19, 2-[(5-Nitro-2-pyridinyl)sulfonyl]ethyl 3-trifluoromethoxybenzoate]	< 10	< 10
O=C(OCCS(=O)(=O)c1ccc(C(F)(F)F)cn1)c1cccc(Cl)c1 [Compound 21, 2-[(5-Trifluoromethyl-2-pyridinyl)-2-sulfonyl]ethyl 3-chlorobenzoate]	< 10	< 10
CC(=O)NCCS(=O)(=O)c1ccc([N+](=O)[O-])cn1 [Compound 40]	< 10	< 10
CC(C)(C)OC(=O)NCCS(=O)(=O)c1ccc([N+](=O)[O-])cn1 [Compound 41, 2-[(2-{N-tert-Butoxycarbonylamino}ethyl)sulfonyl]-5-nitropyridine]	< 10	< 10
O=C(NCCS(=O)(=O)c1ccc([N+](=O)[O-])cn1)c1cccc(Cl)c1 [Compound 42, 3-Chloro-N-[2-({5-nitro-2-pyridinyl}sulfonyl)ethyl]benzamide]	< 10	< 10
O=C(OCC[S+]([O-])c1ccc([N+](=O)[O-])cn1)c1cccc(Cl)c1 (centres unmarked) [Compound 50, 2-[(5-nitro-2-pyridinyl)sulfinyl]ethyl-3-chlorobenzoate]	< 10	< 10
O=C(Nc1ccccc1)Nc1ccc(S(=O)(=O)CCOC(=O)c2cccc(Cl)c2)nc1 [Compound 55, 2-[(5-{Phenylureido}-2-pyridinyl)sulfonyl]ethyl-3-chlorobenzoate]	> 10	> 10
CCNC(=O)Nc1ccc(S(=O)(=O)CCOC(=O)c2cccc(Cl)c2)nc1 [Compound 56, 2-[(5-{Ethylureido}-2-pyridinyl)sulfonyl]ethyl-3-chlorobenzoate]	> 10	> 10
O=C(Nc1ccc(OC(F)(F)F)cc1)Nc1ccc(S(=O)(=O)CCOC(=O)c2cccc(Cl)c2)nc1 [Compound 57, 2-[(5-{4-Trifluoromethoxyphenylureido}-2-pyridinyl)sulfonyl]ethyl-3-chlorobenzoate]	< 10	< 10
O=C(OCCS(=O)(=O)c1ccc(N2C(=O)c3ccccc3C2=O)cn1)c1cccc(Cl)c1 [Compound 66, [(5-{1,3-Dihydro-1,3-dioxo-2H-isoindol-2-yl}-2-pyridinyl)sulfonyl]ethyl 3-chlorobenzoate]	< 10	< 10
O=C(OCCS(=O)(=O)c1ccc(N2C(=O)CCC2=O)cn1)c1cccc(Cl)c1 [Compound 67, [(5-{2,5-Dioxotetrahydro-1H-pyrrol-1-yl}-2-pyridinyl)sulfonyl]ethyl 3-chlorobenzoate]	> 10	> 10
